How the values were obtained:
[1] = tested on: Rosa hybrida (pot rose cultivar) explants; assay: In vitro and post vitro shoot multiplication and rooting of rose; type: in vivo; settings: for Root number per plant / Total root length per plant: Ex vitro, four weeks of acclimatising; for Flower number per explant / Number of new shoots per explant / Root number per explant / Total root length per explant: In vitro, 10 μM, 8 weeks
Procedure: The aim of this experiment was to test whether the new compounds are of practical use in tissue culture practice. The multiplication rate was investigated and the post vitro effects on rooting were examined. Rosa hybrida (pot rose cultivar) was cultured in 350 ml vessels with a screw on polycarbonate lid. Each culture vessel contained 100 ml autoclaved medium (120° C., 20 min). The cultures were maintained at 23±2° C. under a 16 h photoperiod at 40 μM m^−2 s^−1 PAR. The basal medium (BMR) contained Murashige and Skoog (1962) macroelements, microelements and vitamins, 95 μM NaFeEDTA, 555 μM myo-inositol, 111 mM sucrose, 1.332 mM glycine, 684 μM L-glutamine and 7 g/l agar. This medium was supplemented with 10 μM BA, mT, oMeOBAP or mMeOBAP (compound no. 14 and 15, respectively). The control medium didn't contain any cytokinin. After a culture period of 8 weeks, the number of induced shoots per explant was determined, as well as root number/explant and total root length/explant. The roots were removed and the explants (shoot clusters) were planted in unfertilised peat. After four weeks of acclimatising in a fog unit, root number and root length was determined.

[2] = tested on: Rosa hybrida 'Pailin' explants; assay: Early shoot senescence of tissue cultured roses; type: in vivo; settings: for relative number of dead plants in relation to culture time: 10 μM in medium
Procedure: Rosa hybrida ‘Pailin’ (a cut rose) was cultured in 350 ml vessels with a screw on polycarbonate lid. Each culture vessel contained 100 ml autoclaved medium (120° C., 20 min). The cultures were maintained at 23±2° C. under a 16 h photoperiod at 40 μM m^−2 s^−1 PAR. The basal medium (BMR) contained Murashige and Skoog (1962) macroelements, microelements and vitamins, 36.7 mg/l NaFeEDTA, 50 mg/l NaFeEDDHA, 100 mg/l […] myo-inositol, 30 g/l sucrose, 100 mg/l glycine, 50 mg/l calcium pantothenate, 100 mg/l L-glutamine and 7 g/l agar-agar. This medium was supplemented with 10 μM BA, mT and mMeOBAP. The last 2 cytokinins were filter sterilised and added after autoclaving the medium in the vessels. The control medium didn't contain any cytokinin. After a culture period of 6 weeks, scoring senescence symptoms was started.

[3] = tested on: human adult skin fibroblasts; assay: Short-term growth of human skin fibroblasts (cell counts, Giemsa); type: cell-based; settings: for Cell growth versus untreated: 40 μM and 80 μM; for Cell proliferation (summary): all concentrations (40, 80, 200 and 500 μM); for appearance of dermal cells (summary): all doses 40, 80, 200 and 500 μM; for Cellular growth at higher concentrations: para 200 to 500 μM after 11 days, ortho 200 and 400 μM after 7 days, meta 400 μM
Procedure: (§1) All experiments were performed on early and mid passage cultures (about 20 to 40% lifespan completed) of normal human adult skin fibroblast line; designated ASF-2 & Senetek cell line (about 10-90% lifespan completed); designated as SF20. In order to check the effects of test compounds on senescent cells, late passage cells with more than 95% lifespan completed were used. ASF-2 and SF20 cell lines were established from a mammary skin biopsy obtained from a young, non-smoking and healthy […] at the time of breast reduction operation. Normal culture conditions of medium (DMEM) containing antibiotics, 10% foetal calf serum, and incubation at 37° C. with 95% humidity were used. The effects of the test chemicals were determined in the following conditions:
Short-term growth experiments were performed using 24-well tissue culture plates (growth area 1.9 cm^2). Freshly prepared cell suspensions from mass cultures of ASF-2 cells maintained in our labs were used. About 10,000 cells were seeded into 6 sets of 24-well plates. The cells were allowed to attach and stabilize for 24 hr in normal culture medium to achieve various final concentrations (range 40 to 500 μM). Culture medium was changed with the addition of test chemicals twice a week. The numbers of cells were counted after different days of treatment in 2 wells from each concentration of the test chemical, by following the normal method of cell trypsinization and counting using a Coultercounter. The third well in each category was fixed by cold methanol and stained with Giemsa stain for permanent record and for photography. The experiment was carried on for until the cultures became fully confluent and no further growth was possible.

proteasome = assay: Proteasomal chymotrypsin-like activity in cell extracts of treated cells; type: cell-based, human; settings: 40, 80 and 200 μM
Procedure: Chymotrypsin-like activity in cell extracts prepared from treated and untreated cells was determined by in vitro degradation of oligopeptides by the proteasome.

human skin fibroblasts [4] = assay: beta-galactosidase staining of treated skin fibroblasts; type: cell-based; settings: short-term growth treatment
human skin fibroblasts [5] = assay: Cell attachment of human skin fibroblasts; type: cell-based; settings: for attachment / Percent of cells attached, effect in words: ortho 40 to 400 μM, meta 40 to 200 μM; for Percent of cells attached, effect in words: para 40 μM to 1 mM; for Overall cell attachment improved (summary): para at 40, 80, 100, 160, 250 and 500 μM
Procedure: as §1, with “conditions: […]” for “conditions:”

human skin fibroblasts [6] = assay: Cell survival, MTT assay; type: cell-based; settings: 3 days
Procedure: Cell survival after exposure to various doses was measured with the 3-(4,5 dimethylthiazol-2-yl)-2,5-diphenyltetrazolium bromide (MTT) assay. About 5,000 cells were seeded per well in a 96-well plate 24 h before the experiment. Cells were then treated with various doses of the compound to be tested. The wells were washed in Hank's and new medium was added. After three days, MTT (Sigma, M2128) was added at 0.5 mg/ml in medium. After 4 h, MTT was removed and isopropanol and HCl were added to dissolve the MTT crystals for 12-16 h. The absorbance at 595 nm was measured.

[7] = tested on: senescent human skin fibroblasts; assay: Morphology of senescent cells; type: cell-based; settings: for appearance of senescent cells on longer treatment: 14 days, ortho and meta 80 μM and above; for appearance of senescent cells: after 7 days of treatment (para: 7 days and 14 days; meta: low concentrations)
Procedure: as §1
Senescent human skin fibroblasts were treated with various doses of para-topolin to see if this treatment could reverse age-related alterations in their morphology. […] The cells progressively became heterogeneous with large and flattened appearance.

| Structure (SMILES) | Root number per plant [1] | Total root length per plant [1] [cm] | Flower number per explant [1] | Number of new shoots per explant [1] | Root number per explant [1] | Total root length per explant [1] [cm] | relative number of dead plants in relation to culture time [2] | Cell growth versus untreated [3] | Cell proliferation (summary) [3] | appearance of dermal cells (summary) [3] | Cellular growth at higher concentrations [3] | proteasomal activity (chymotrypsin-like), removal of oxidized and abnormal proteins (proteasome) | attachment (human skin fibroblasts [5]; 6 hours) | Percent of cells attached, effect in words (human skin fibroblasts [5]; 6 hours) | Overall cell attachment improved (summary) (human skin fibroblasts [5]) | appearance of senescent cells on longer treatment [7] | appearance of senescent cells [7] | also measured |
| --- | --- | --- | --- | --- | --- | --- | --- | --- | --- | --- | --- | --- | --- | --- | --- | --- | --- | --- |
| COc1cccc(CNc2ncnc3nc[nH]c23)c1 [6-(3-methoxybenzylamino)purine] | 1.7 | 4.1 | 0.03 | 4.3 | 0.0 | 0.0 | the situation improved | – | – | – | – | – | – | – | – | – | – | plants alive ([2]; 10 μM, after 121 days): almost all plants were still alive |
| Oc1ccccc1CNc1ncnc2nc[nH]c12 [ortho-topolin, 6-(2-hydroxybenzylamino)purine] | – | – | – | – | – | – | – | almost similar | declined to a significant extent | morbid in appearance | almost a total inhibition | failed to show such an effect | 80 to 90% | not affected to any significant extent | No improvements | unhealthy and sick | no significant differences | number of prematurely senescent cells, beta-galactosidase staining (human skin fibroblasts [4]): did not show any increase; reduction in cell survival (human skin fibroblasts [6]; 200-500 μM): 10-20%; dose until which not cytotoxic / no toxic effect on survival (MTT) (human skin fibroblasts [6]; range 0.01-500 μM): 100 µM |
| Oc1cccc(CNc2ncnc3nc[nH]c23)c1 [meta-topolin, 6-(3-hydroxybenzylamino)purine] | 1.4 | 3.8 | 0.16 | 2.1 | 0.0 | 0.0 | the situation improved | almost similar | declined to a significant extent | morbid in appearance | almost no growth | failed to show such an effect | about 80% | not affected to any significant extent | No improvements | unhealthy and sick | no significant differences | rate of growth ([3]; 200 μM): slowed down; reduction in cell attachment (human skin fibroblasts [5]; 400 μM, 6 hours): 20%; cells that did survive treatment (human skin fibroblasts [6]): 60%; cells killed (human skin fibroblasts [6]; between 0.01 and 1 μM): about 40%; effects on morphology of senescent cells ([7]; 200 μM and above, within 7 days): some negative effects |
